This note sets out measurements from ChEMBL document CHEMBL1201862, “PubChem BioAssay data set” (2004).

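48-hour exposure; five concentrations; linearly interpolated endpoints. GI50: concentration for 50% inhibition of growth.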 Activity calls are given as the source filed them. No stated cut-off is given here; in the data, active = GI50 up to about 1.1 µM and inactive = higher.

Holding throughout (experiment): NCI anticancer screen, dose series, 48 h
The subject of assay [1] is SNB-19.
The test system of assay [2] is HOP-92.
The test system of assay [3] is A549.
For assay [4], the system named is EKVX.
Assay [5] concerns SK-MEL-28.
Assay [6] has as its system KM12.
For assay [7], the system named is Malme-3M.
In assay [8] the test system is NCI-H226.
Assay [9] has as its system DLD-1.
Assay [10] deals with CAKI-1.
The test system of assay [11] is MOLT-4.
Assay [12] has as its system HCT-15.
The test system of assay [13] is SK-OV-3.
Assay [14] deals with HT-29.
Assay [15] deals with SF-295.
Assay [16] has as its system SNB-78.
In assay [17] the test system is HOP-62.
For assay [18], the system named is SW-620.
In assay [19] the test system is NCI-H460.
Assay [20] relates to MDA-MB-435.

Turning to `CC(C)NC(=O)OCc1c2c(n(C)c1COC(=O)NC(C)C)-c1ccccc1CC2`, the GI50 in [1] was 14.6 µM (inactive); in assay [2] it was 6.73 µM (inactive); in assay [3] it was 23.7 µM (inactive); in [4], 14.9 µM (inactive); in [5], 13 µM (inactive); in assay [6], 15.5 µM (inactive). Also, the GI50 was 5.51 µM (inactive) in [7]; 11.9 µM (inactive) in assay [8]; 11.9 µM (inactive) in assay [9]; 9.14 µM (inactive) in [10]; 2.61 µM (inactive) in assay [11]; 14 µM in [12]. In addition, the GI50 in [13] was 15.7 µM (inactive); in assay [14], 15.2 µM (inactive); in [15], 15.9 µM (inactive); in assay [16], 11.4 µM (inactive); in [17], 13 µM (inactive); in assay [18], 9.2 µM (inactive). In addition, the GI50 in [19] is 14.1 µM (inactive).
Take `Nc1nc(-c2ccccc2)c(Cl)c(-c2cc(Cl)ccc2O)n1`: the GI50 in assay [1] is 19.2 µM (inactive); in assay [2], 39.5 µM (inactive); in [3] it was 19.5 µM (inactive); in [4], 28.1 µM (inactive); in assay [5], 91.2 µM (inactive); in assay [6], 16.7 µM (inactive). In addition, the GI50 in [7] was > 77.1 µM (inactive); in [8], 24.7 µM (inactive); in assay [9], 26.3 µM (inactive); in [10], 20.5 µM (inactive); in [11], > 100 µM (inactive); in [12], 18.4 µM. Besides, the GI50 in assay [13] was 17.3 µM (inactive); in assay [14], 49.2 µM (inactive); in assay [15], 48.4 µM (inactive); in assay [16], 28.1 µM (inactive); in assay [20] it was > 100 µM (inactive); in [17], 14.9 µM (inactive). Further, the results for the GI50 in assay [18] and in assay [19] were 44.3 µM (inactive) and 17 µM (inactive), respectively.
In the case of `Cc1cc(C)nc(NS(=O)(=O)c2ccc(NC(=O)COC(=O)c3cccc4c(=O)c5ccccc5[nH]c34)cc2)n1`, the GI50 was 26.8 µM (inactive) in [1]; 31.1 µM (inactive) in assay [2]; > 100 µM (inactive) in [3]; 54.2 µM (inactive) in [4]; 31.7 µM (inactive) in assay [5]; 19.3 µM (inactive) in [6]. The GI50 is 26.7 µM (inactive) in assay [7]; 53.3 µM (inactive) in assay [8]; 45.7 µM (inactive) in assay [9]; > 100 µM (inactive) in assay [10]; 31.3 µM (inactive) in [11]; > 100 µM in [12]. Moreover, the GI50 was 38.8 µM (inactive) in assay [13]; 33 µM (inactive) in assay [14]; 33.7 µM (inactive) in assay [15]; 82.2 µM (inactive) in assay [16]; 23.7 µM (inactive) in assay [17]; 31.8 µM (inactive) in [18]. In [19], the GI50 is 49 µM (inactive).
In the case of `Nc1cc[nH]c(=O)n1`, the GI50 in assay [2], in assay [3], in assay [4], in [5], in assay [6] and in assay [7] was > 100 µM (inactive) throughout. Also, the GI50 is > 100 µM (inactive) in [8]; > 100 µM (inactive) in assay [9]; > 100 µM (inactive) in assay [10]; > 100 µM in assay [12]; > 100 µM (inactive) in [13]; > 100 µM (inactive) in assay [14]. Also, the GI50 in assay [15], in assay [16], in [17], in assay [18] and in assay [19] was > 100 µM (inactive) throughout.
Take `COc1ccc(-c2nc(Sc3c([N+](=O)[O-])ncn3C)n[nH]2)cc1`: the GI50 in [1] is 13 µM (inactive); in assay [2], 2.55 µM (inactive); in assay [3], 12.4 µM (inactive); in assay [4], 20.7 µM (inactive); in assay [5], 4.21 µM (inactive); in assay [6], 1.99 µM (inactive). Further, the GI50 is 2.6 µM (inactive) in assay [7]; 13.4 µM (inactive) in [8]; 2.49 µM (inactive) in assay [9]; 4.35 µM (inactive) in [10]; 2.85 µM (inactive) in [11]; 4.17 µM (inactive) in assay [13]. Also, the GI50 is 2.39 µM (inactive) in assay [14]; 3.33 µM (inactive) in [15]; 4.22 µM (inactive) in [16]; 19.1 µM (inactive) in assay [17]; 3.26 µM (inactive) in [18]; 8.77 µM (inactive) in [19].
Consider `CN(C)C(=N)NC(=S)N(C)C`, for which the GI50 in assay [1], in assay [2], in [3], in [4], in assay [5] and in assay [6] was > 100 µM (inactive) each time. Moreover, the GI50 in assay [7] is > 100 µM (inactive); in assay [8] it was 17.2 µM (inactive); in assay [9], > 100 µM (inactive); in assay [10], > 100 µM (inactive); in [11] it was > 100 µM (inactive); in assay [12], > 100 µM. In addition, the GI50 in [13], in [14], in [15], in assay [16], in [17] and in assay [18] was > 100 µM (inactive) throughout. Besides, the GI50 in assay [19] was > 100 µM (inactive).
For the compound `N#COc1ccc(Oc2ccc(OC#N)cc2)cc1`, the GI50 in assay [1], in [2], in assay [3], in assay [4], in [5] and in [6] was > 100 µM (inactive) in each case. Also, the GI50 in [7] was > 100 µM (inactive); in [8], > 100 µM (inactive); in assay [9], 63 µM (inactive); in assay [10] it was > 100 µM (inactive); in assay [11], 72.4 µM (inactive); in [12], 42.8 µM. The GI50 in assay [13] was > 100 µM (inactive); in assay [14] it was 70.6 µM (inactive); in [15] it was 98.4 µM (inactive); in assay [16] it was > 100 µM (inactive); in [17] it was > 100 µM (inactive); in [19], 28.2 µM (inactive).
Consider `O=C(Cc1nc2ccc(C(=O)c3ccccc3)cc2nc1O)C(=O)Nc1ccc(C(F)(F)F)cc1[N+](=O)[O-]`, for which the GI50 in assay [1] was 94.8 µM (inactive); in assay [2], 35.3 µM (inactive); in [3], > 100 µM (inactive); in assay [4] it was 11.7 µM (inactive); in [5] it was 82.6 µM (inactive); in [6], 59 µM (inactive). The GI50 in assay [7] was > 100 µM (inactive); in assay [8], 87.1 µM (inactive); in assay [9], > 100 µM (inactive); in assay [10], 30.8 µM (inactive); in [11], 22.8 µM (inactive); in assay [12], > 100 µM. Also, the GI50 was > 100 µM (inactive) in assay [13]; 50.9 µM (inactive) in assay [14]; 94.2 µM (inactive) in [15]; 81.1 µM (inactive) in assay [16]; 91.8 µM (inactive) in assay [17]; 47.4 µM (inactive) in assay [18]. Moreover, the GI50 in assay [19] is 57.8 µM (inactive).
Regarding `c1ccc2c(c1)[nH]c1c2ncc2[nH]c3ccccc3c21`, the GI50 in [1] is 2.94 µM (inactive); in assay [2], 2.57 µM (inactive); in assay [3] it was 4.65 µM (inactive); in assay [4], 12.9 µM (inactive); in assay [5], 11.7 µM (inactive); in [6], 3.06 µM (inactive). Also, the GI50 in assay [7] is 19.4 µM (inactive); in assay [8] it was 14 µM (inactive); in [9], 3.44 µM (inactive); in assay [10] it was 3.73 µM (inactive); in assay [11], 3.05 µM (inactive); in assay [12] it was 2.25 µM. Also, the GI50 was 14.1 µM (inactive) in assay [13]; 2.88 µM (inactive) in assay [14]; 3.58 µM (inactive) in assay [15]; 4.95 µM (inactive) in [16]; 4.31 µM (inactive) in [17]; 2.9 µM (inactive) in assay [18]. Also, in assay [19], the GI50 was 2.13 µM (inactive).
Regarding `CN(C)c1ccc(/N=C2/C=CC(=C(C#N)C#N)c3ccccc32)cc1`, the GI50 in [1] was 0.536 µM (active); in assay [2], 0.07 µM (active); in assay [3], 0.436 µM (active); in [4], 0.955 µM (active); in assay [5] it was 0.52 µM (active); in [6] it was 0.381 µM (active). The GI50 in assay [7] is 0.625 µM (active); in assay [8], 0.236 µM (active); in assay [9], 0.294 µM (active); in assay [10], 0.55 µM (active); in assay [11] it was 0.196 µM (active); in [12], 0.195 µM. Moreover, the GI50 was 0.332 µM (active) in [13]; 0.177 µM (active) in [14]; 0.291 µM (active) in assay [15]; 0.479 µM (active) in assay [16]; 0.0391 µM (active) in assay [20]; 0.468 µM (active) in assay [17]. Moreover, the GI50 is 0.114 µM (active) in assay [18] and 0.332 µM (active) in assay [19].
